Test results from US10118902B2 (Sanford Burnham Prebys Medical Discovery Institute, priority 2014, dated 2018).
Like-named read-outs stand apart in the source and are kept apart here.

Target: neurotensin receptor 1 (NTR1) (Homo sapiens (Human), UniProt P30989)
Assay: NTR1 dose response, high-content imaging beta-arrestin-GFP assay in NTR1-U2OS cells
Format: cell-based
Parameters: scale not given here
Excerpt: The cell lines utilized in the high-content imaging assays, which include the NTR1-, NTR2-, and GPR35-U2OS osteosarcomas, were obtained from the laboratory of Dr. Lawrence Barak at the Duke University Medical Center. The media used in the culture of the cell lines, as well as the assays themselves, consisted of Minimum Essential Medium (15-010-CM) and L-glutamine (25-005-CL) from Cellgro/Mediatech (Manassas, Va.), fetal bovine serum (SH30396.03) from Hyclone (Logan, Utah), penicillin-streptomycin solution (PS-20) from Omega Scientific in Tarzana, Calif., G418 (ant-gn-1) from Invivogen (San Diego, Calif.), and zeocin (R250-01) from Invitrogen (Carlsbad, Calif.). Cell lines were cultured in T225 tissue culture flasks (431082) supplied by Corning (Corning, N.Y.). Additional reagents employed include Dulbecco's Phosphate-Buffered Saline (DPBS) (21-031CV) from Cellgro/Mediatech, Trypsin-EDTA 0.05% (25300) from Invitrogen, paraformaldehyde (30528954) from Acros Organics (Geel, Belgium), Hoechst 33342 (H3570) from Invitrogen. The high-content assays were run in 1536-well plates (29326) supplied by Aurora Biotechnology (Poway, Calif.) and utilized aluminum plate seals (T592100) from E&K Scientific (Santa Clara, Calif.). […]
The high-content imaging based NTR1 primary screen in 1536-well format was utilized to assay the MLSMR library of chemical entities in the following manner. On day one, 4 uL of a cell suspension containing 350,000 NTR1-U2OS cells per mL is added to each well of a 1536-well assay plate. Cells are plated in MEM medium containing 2.5% Fetal Bovine Serum, 1% Penicillin/Streptomycin solution, 1% L-Glutamine, 400 ug/mL G418, and 200 ug/mL Zeocin. The assay plates are then incubated overnight at 37° C., under 5% CO2. Following the overnight incubation, a volume of 60 nL of the compounds at 2 mM in DMSO (final 20 μM, 1% DMSO) was transferred to columns 5-48 of the assay plates using a LabCyte Echo Liquid Handler. Next, 60 nL of DMSO were dispensed to columns 1-4, which served as the positive and neutral control wells. […] The assay plates were centrifuged on an Eppendorf 5810 centrifuge at 1000 rpm for 1 min to ensure even liquid levels in the wells of the assay plates. The assay plates were then returned to the incubator for 1 hour. Following the hour-long incubation at 37° C., the cells in each well were fixed with 4 uL of 6% paraformaldehyde added with a Multidrop Combi. The assay plates were centrifuged as before and incubated at room temperature for 1 hour. On the Kalypsys, plates were then aspirated down to 2.5 uL per well and washed twice with 11 uL per well of DPBS, followed by a final aspiration to 2.5 uL per well. On the Combi dispenser, 5 uL of 5 ug/mL Hoechst 33342 diluted in DPBS was added to each well of assay plates. The plates were again centrifuged as previously described, sealed, and incubated for at least 1 hour prior to being loaded on a PerkinElmer Opera QEHS.
Image acquisition was performed with a 45 plate capacity loader/stacker and the following settings: 40×0.6 NA air objective, acquisition camera set to 2-by-2 binning for an image size of 688 by 512 pixels, beta-arrestin-GFP acquired using 488 nm laser excitation and 540/75 nm emission filters, DAPI (nuclei) using 365 nm Xenon lamp excitation and 450/50 nm emission filters, 3 fields per well. Image analysis was performed using the Acapella Spot Detection Algorithm. For analysis settings and the metrics employed in the data analyses, please refer to supplemental information.
Compounds that were successfully confirmed in quadruplicate at 20 uM were then run in dose response in the primary assay. As with the single concentration hit confirmation, the assay was performed in an identical manner as the primary screen with the following modifications. […]

Chain of neurotensin receptor 1 (NTR1) (P30989 whole entry, species assumed): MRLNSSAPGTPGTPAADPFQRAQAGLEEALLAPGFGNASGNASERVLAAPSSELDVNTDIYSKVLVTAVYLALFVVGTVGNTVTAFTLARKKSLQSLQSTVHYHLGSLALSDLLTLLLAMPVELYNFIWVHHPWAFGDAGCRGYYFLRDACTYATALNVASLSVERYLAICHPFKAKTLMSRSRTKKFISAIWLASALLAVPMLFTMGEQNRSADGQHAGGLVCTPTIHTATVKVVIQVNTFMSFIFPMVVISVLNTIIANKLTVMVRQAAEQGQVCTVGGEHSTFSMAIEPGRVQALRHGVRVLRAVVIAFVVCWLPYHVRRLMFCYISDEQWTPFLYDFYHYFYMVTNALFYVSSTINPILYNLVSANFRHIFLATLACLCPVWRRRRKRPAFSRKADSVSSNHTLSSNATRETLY

Compound	EC50 (read-out: EC50) [nM]	EC50
CCOC(=O)CN(C)c1ccc2nc(C3CC3)nc(N3CCC(c4ccccc4OC)CC3)c2c1 [Example 90, ({2-cyclopropyl-4-[4-(2-methoxy-phenyl)-piperidin-1-yl]-quinazolin-6-yl}-methyl-amino)-acetic acid ethyl ester]	> 10000	
CCCN(C)c1cc2c(N3CCC(c4ccccc4OC)CC3)nc(C3CC3)nc2cc1Cl [Example 104, {7-chloro-2-cyclopropyl-4-[4-(2-methoxy-phenyl)-piperidin-1-yl]-quinazolin-6-yl}-methyl-propyl-amine]	> 10000	
COc1nccnc1C1CCN(c2nc(C3(F)CC3)nc3ccc(N(C)CCO)cc23)CC1 [Example 208, 2-({2-(1-Fluoro-cyclopropyl)-4-[4-(3-methoxy-pyrazin-2-yl)-piperidin-1-yl]-quinazolin-6-yl}-methyl-amino)-ethanol]	500 to 2000	
COc1ccccc1C1CCN(c2nc(C3CC3)nc3ccc(N4CC[C@H](OC)C4)cc23)CC1 [Example 174, (S)-2-cyclopropyl-4-(4-(2-methoxyphenyl)piperidin-1-yl)-6-(3-methoxypyrrolidin-1-yl)quinazoline]	500 to 2000	
CN(C)c1ccccc1C1CCN(c2nc(C3CC3)nc3ccc(N(C)CCO)cc23)CC1 [Example 10, 2-({2-cyclopropyl-4-[4-(2-dimethylamino-phenyl)-piperidin-1-yl]-quinazolin-6-yl}-methyl-amino)-ethanol]	2000 to 10000	
COc1ccccc1C1CCN(c2nc(C3(C)CCCC3)nc3ccc(N(C)CCO)cc23)CC1 [Example 51, 2-{[4-[4-(2-methoxy-phenyl)-piperidin-1-yl]-2-(1-methyl-cyclopentyl)-quinazolin-6-yl]-methyl-amino}-ethanol]	2000 to 10000	
CN(C)c1ccccc1C1CCN(c2nc(C3(C(F)(F)F)CC3)nc3ccc(N(C)CCO)cc23)CC1 [Example 49, 2-{[4-[4-(2-dimethylamino-phenyl)-piperidin-1-yl]-2-(1-trifluoromethyl-cyclopropyl)-quinazolin-6-yl]-methyl-amino}-ethanol]	500 to 2000	
COc1ccccc1C1CCN(c2nc(C3(F)CCC3)nc3ccc(N(C)CCN4CCOCC4)cc23)CC1 [Example 60, {2-(1-fluoro-cyclobutyl)-4-[4-(2-methoxy-phenyl)-piperidin-1-yl]-quinazolin-6-yl}-methyl-(2-morpholin-4-yl-ethyl)-amine]	< 500	
COc1ccccc1C1CCN(c2nc(C3CCC3)nc3ccc(N(C)CCN4CCOCC4)cc23)CC1 [Example 46, {2-cyclobutyl-4-[4-(2-methoxy-phenyl)-piperidin-1-yl]-quinazolin-6-yl}-methyl-(2-morpholin-4-yl-ethyl)-amine]	2000 to 10000	
COc1ccsc1C1CCN(c2nc(C3CC3)nc3ccc(N(C)CCO)cc23)CC1 [Example 138, 2-((2-cyclopropyl-4-(4-(3-methoxythiophen-2-yl)piperidin-1-yl)quinazolin-6-yl)(methyl)amino)ethanol]	500 to 2000	
COc1ccccc1C1CCN(c2nc(C3(C)CC3)nc3ccc(N(C)CCN(C)C)cc23)CC1 [Example 23, N-[4-[4-(2-methoxy-phenyl)-piperidin-1-yl]-2-(1-methyl-cyclopropyl)-quinazolin-6-yl]-N,N′,N′-trimethyl-ethane-1,2-diamine]	> 10000	
COc1cccnc1C1CCN(c2nc(C3(F)CC3)nc3c(F)cc(N(C)CCO)cc23)CC1 [Example 216, 2-{[8-Fluoro-2-(1-fluoro-cyclopropyl)-4-(3-methoxy-3′,4′,5′,6′-tetrahydro-2′H-[2,4′]bipyridinyl-1′-yl)-quinazolin-6-yl]-methyl-amino}-ethanol]	2000 to 10000	
CN(C)c1ccccc1C1CCN(c2nc(C3(C)CC3)nc3ccc(N(C)CCO)cc23)CC1 [Example 25, 2-{[4-[4-(2-dimethylamino-phenyl)-piperidin-1-yl]-2-(1-methyl-cyclopropyl)-quinazolin-6-yl]-methyl-amino}-ethanol]	2000 to 10000	
COc1ccccc1C1CCN(c2nc(C3(F)CC3)nc3c(Cl)cc(N4CC[C@@H](O)C4)cc23)CC1 (stereo in doubt) [Example 202, 1-{8-Chloro-2-(1-fluoro-cyclopropyl)-4-[4-(2-methoxy-phenyl)-piperidin-1-yl]-quinazolin-6-yl}-pyrrolidin-3-ol]	500 to 2000	
CCN(C)c1ccc2nc(C3CC3)nc(N3CCC(c4ccccc4N4CCC4)CC3)c2c1 [Example 4, {4-[4-(2-azetidin-1-yl-phenyl)-piperidin-1-yl]-2-cyclopropyl-quinazolin-6-yl}-ethyl-methyl-amine]	> 10000	

The remaining lines, values ahead:

EC50 (read-out: EC50) [nM]	EC50	Compound
> 10000		COc1ccccc1C1CCN(c2nc(C3CC3)nc3c(N(C)CCN4CCOCC4)cccc23)CC1 [Example 129, {2-cyclopropyl-4-[4-(2-methoxy-phenyl)-piperidin-1-yl]-quinazolin-8-yl}-methyl-(2-morpholin-4-yl-ethyl)-amine]
2000 to 10000		COc1ccsc1C1CCN(c2nc(C3CC3)nc3ccc(N(C)CCO)cc23)CC1 [Example 190, 2-({2-Cyclopropyl-4-[4-(3-methoxy-thiophen-2-yl)-piperidin-1-yl]-quinazolin-6-yl}-methyl-amino)-ethanol]
< 500		CN(C)c1ccccc1C1CCN(c2nc(C3CC3)nc3cc(F)c(N(C)CCO)cc23)CC1 [Example 120, 2-({2-cyclopropyl-4-[4-(2-dimethylamino-phenyl)-piperidin-1-yl]-7-fluoro-quinazolin-6-yl}-methyl-amino)-ethanol]
> 10000		COc1ccccc1N[C@@H]1CCN(c2nc(C3CC3)nc3ccc(N(C)CCO)cc23)C1 (stereo in doubt) [Example 153, 2-({2-cyclopropyl-4-[3-(2-methoxy-phenylamino)-pyrrolidin-1-yl]-quinazolin-6-yl}-methyl-amino)-ethanol]
500 to 2000		COc1ccccc1C1CCN(c2nc(C3(F)CC3)nc3cnc(N4CC[C@@H](O)C4)cc23)CC1 [Example 197, 1-{2-(1-Fluoro-cyclopropyl)-4-[4-(2-methoxy-phenyl)-piperidin-1-yl]-pyrido[3,4-d]pyrimidin-6-yl}-pyrrolidin-3-ol]
500 to 2000		COc1ccccc1C1CCN(c2nc(C3(F)CC3)nc3ccc(N(C)C)cc23)CC1 [Example 18, {2-(1-fluoro-cyclopropyl)-4-[4-(2-methoxy-phenyl)-piperidin-1-yl]-quinazolin-6-yl}-dimethyl-amine]
2000 to 10000		CN(C)c1ccccc1C1CCN(c2nc(C3CC3)nc3ccc(N(C)CCN4CCCC4)cc23)CC1 [Example 13, {2-cyclopropyl-4-[4-(2-dimethylamino-phenyl)-piperidin-1-yl]-quinazolin-6-yl}-methyl-(2-pyrrolidin-1-yl-ethyl)-amine]
> 10000		CCCN(C)c1ccc2nc(-c3ccccc3)nc(N3CCC(c4ccccc4OC)CC3)c2c1 [Example 146, {4-[4-(2-methoxy-phenyl)-piperidin-1-yl]-2-phenyl-quinazolin-6-yl}-methyl-propyl-amine]
> 10000		COc1ccccc1C1CCN(c2nc(C3CC3)nc3ccc(N4CCC(N(C)C)CC4)cc23)CC1 [Example 78, (1-{2-cyclopropyl-4-[4-(2-methoxy-phenyl)-piperidin-1-yl]-quinazolin-6-yl}-piperidin-4-yl)-dimethyl-amine]
500 to 2000		CN(CCN1CCOCC1)c1ccc2nc(C3CC3)nc(N3CCC(c4ccccc4N4CCC4)CC3)c2c1 [Example 8, {4-[4-(2-azetidin-1-yl-phenyl)-piperidin-1-yl]-2-cyclopropyl-quinazolin-6-yl}-methyl-(2-morpholin-4-yl-ethyl)-amine]
	C or D	COc1ccccc1C1CCN(c2nc(C3CCC3)nc3ccc(N(C)C)cc23)CC1 [Example 42, {2-cyclobutyl-4-[4-(2-methoxy-phenyl)-piperidin-1-yl]-quinazolin-6-yl}-dimethyl-amine]
